Drawing on US7700786B2, “Pyrazole derivative, intermediate therefor, processes for producing these, and herbicide containing these as active ingredient” (Sagami Chemical Research Center, priority 2001, dated 2010), this text covers melting point for 33 compounds.

Usually melting point stands for the temperature of the solid-liquid transition.

Structures are written as SMILES.

In turn, `C=CNC(=S)n1nc(Oc2ncc(C(F)(F)F)cc2Cl)cc1C` [Compound 4-41, N-vinyl-3-(3-chloro-5-trifluoromethylpyridin-2-yloxy)-5-methylpyrazole-1-carbothioamide] yielded a melting point of 90 to 92 °C.
`Cc1cc(Oc2ccc(C(F)(F)F)cc2[N+](=O)[O-])nn1C(=O)NC(C)(C)C` [Example 86, N-tert-butyl-5-methyl-3-(2-nitro-4-trifluoromethylphenyloxy)-pyrazole-1-carboxamide] returned a melting point of 104 to 106 °C.
The result for `CCNC(=O)n1nc(Oc2ccc([N+](=O)[O-])c(C)c2)cc1C` [Example 96, N-ethyl-5-methyl-3-(3-methyl-4-nitrophenyloxy)pyrazole-1-carboxamide] reads 67 to 69 °C.
The result for `CCc1cc(Oc2ncc(C(F)(F)F)cc2Cl)nn1C(=O)NC` reads 85 to 87 °C.
The result for `Cc1cc(Oc2ccccc2C(F)(F)F)nn1C(=O)Nc1ccccc1` reads 87 to 89 °C; that for `COCNC(=S)n1nc(Oc2ccc(C#N)cc2C(F)(F)F)cc1C` [Example 177, N-methoxymethyl-3-(4-cyano-2-trifluoromethylphenyloxy)-5-methylpyrazole-1-carbothioamide], 89 to 90 °C.
`Cc1cc(Oc2c(Cl)cc(C(F)(F)F)cc2Cl)n[nH]1` [Compound 1-17, 3-(2,6-dichloro-4-trifluoromethylphenyloxy)-5-methylpyrazole] registered a melting point of 153 to 155 °C.
Compound `Cc1cc(Oc2c(F)cc(C(F)(F)F)cc2Cl)n[nH]1` [Compound 1-19, 3-(2-chloro-6-fluoro-4-trifluoromethylphenyloxy)-5-methylpyrazole] displayed a melting point of 171 to 174 °C.
With `CNC(=O)n1nc(Oc2ccc(C(F)(F)F)cc2N)cc1C` [Example 242, N-methyl-3-(2-amino-4-trifluoromethylphenyloxy)-5-methylpyrazole-1-carboxamide] the figure was 93 to 94 °C; with `CCNC(=O)n1nc(Oc2ncc(C(F)(F)F)cc2Cl)c(CC)c1C` [Compound 4-85, N-ethyl-3-(3-chloro-5-trifluoromethylpyridin-2-yloxy)-4-ethyl-5-methylpyrazole-1-carboxamide], 101 to 102 °C; with `CNC(=O)n1nc(Oc2ccc([N+](=O)[O-])cc2C(F)(F)F)c(C)c1C`, 113 to 115 °C.
Compound `CCNC(=O)n1nc(Oc2c(Cl)cc(C(F)(F)F)cc2[N+](=O)[O-])cc1C` [Example 126, N-ethyl-3-(2-chloro-6-nitro-4-trifluoromethylphenyloxy)-5-methylpyrazole-1-carboxamide] registered a melting point of 98 to 99 °C.
The result for `Cc1cc(Oc2c(Cl)cc(C(F)(F)F)cc2Cl)nn1C(=O)NCC=O` [Example 229, N-formylmethyl-3-(2,6-dichloro-4-trifluoromethylphenyloxy)-5-methylpyrazole-1-carboxamide] reads 111 to 113 °C.
On to `Cc1c(Cl)c(Oc2ccc(C(F)(F)F)cc2[N+](=O)[O-])nn1C(=O)NC(C)C` [Example 243, N-isopropyl-4-chloro-5-methyl-3-(2-nitro-4-trifluoromethylphenyloxy)pyrazole-1-carboxamide], for which the melting point lay within 89 to 91 °C.
The result for `CCNC(=O)n1nc(Oc2ccc(F)cc2[N+](=O)[O-])cc1C` [Example 85, N-ethyl-3-(4-fluoro-2-nitrophenyloxy)-5-methylpyrazole-1-carboxamide] reads 81 to 84 °C.
With `CNC(=O)n1nc(Oc2ncc(C(F)(F)F)cc2Cl)cc1C(F)(F)F` [Compound 4-91, N-methyl-3-(3-chloro-5-trifluoromethylpyridin-2-yloxy)-5-trifluoromethylpyrazole-1-carboxamide] the figure was 61 to 63 °C; with `CNC(=S)n1nc(Oc2ncc(C(F)(F)F)cc2Cl)cc1C`, 63 to 65 °C.
Take `CCNC(=O)n1nc(Oc2c(Cl)cc(C(F)(F)F)cc2Cl)cc1C(=O)OC` [Example 175, methyl 3-(2,6-dichloro-4-trifluoromethylphenyloxy)-1 (N-ethylcarbamoyl)pyrazole-5-carboxylate]: the melting point was 88 to 90 °C.
As to `CCNC(=O)n1nc(Oc2ccc([N+](=O)[O-])cc2)cc1C` [Example 54, N-ethyl-5-methyl-3-(4-nitrophenyloxy)pyrazole-1-carboxamide], the melting point is 105 to 107 °C.
With `CCNC(=O)n1nc(Oc2c(F)cc(C(F)(F)F)cc2F)cc1C` [Example 124, N-ethyl-3-(2,6-difluoro-4-trifluoromethylphenyloxy)-5-methylpyrazole-1-carboxamide] the figure was 102 to 104 °C.
In turn, `CCc1c(Oc2ccc(C(F)(F)F)cc2[N+](=O)[O-])nn(C(=O)NC)c1C` displayed a melting point of 81 to 82 °C.
Regarding `CNC(=O)n1nc(Oc2c(Cl)cc(C(F)(F)F)cc2Cl)cc1C`, the melting point is 113 to 114 °C.
`CCNC(=O)n1nc(Oc2cc(OCC)ccc2[N+](=O)[O-])cc1C` [Example 99, N-ethyl-3-(5-ethoxy-2-nitrophenyloxy)-5-methylpyrazole-1-carboxamide]: the melting point fell in the range of 73 to 75 °C.
`Cc1cc(Oc2ccc([N+](=O)[O-])c(Cl)c2)n[nH]1` [Compound 1-23, 3-(3-chloro-4-nitrophenyloxy)-5-methylpyrazole] showed a melting point of 91 to 93 °C.
With `Cc1cc(Oc2c(Cl)cc(C(F)(F)F)cc2Cl)nn1C(N)=O` [Example 223, 3-(2,6-dichloro-4-trifluoromethylphenyloxy)-5-methylpyrazole-1-carboxamide] the figure was 152 to 154 °C.
With `Cc1[nH]nc(Oc2c(Cl)cc(C(F)(F)F)cc2Cl)c1Cl` [Compound 1-18, 4-chloro-3-(2,6-dichloro-4-trifluoromethylphenyloxy)-5-methylpyrazole] the figure was 156 to 158 °C.
In turn, `CCc1c(Cl)c(Oc2ncc(C(F)(F)F)cc2Cl)nn1C(=O)NC` [Compound 4-89, N-methyl-4-chloro-3-(3-chloro-5-trifluoromethylpyridin-2-yloxy)-5-ethylpyrazole-1-carboxamide] displayed a melting point of 88 to 89 °C.
The result for `CCCCCCNC(=O)n1nc(Oc2c(Cl)cc(C(F)(F)F)cc2Cl)c(Cl)c1C` [Example 246, N-hexyl-4-chloro-3-(2,6-dichloro-4-trifluoromethylphenyloxy)-5-methylpyrazole-1-carboxamide] reads 86 to 88 °C; that for `CCNC(=O)n1nc(Oc2ccc([N+](=O)[O-])c(OCC)c2)cc1C` [Example 98, N-ethyl-3-(3-ethoxy-4-nitrophenyloxy)-5-methylpyrazole-1-carboxamide], 110 to 112 °C; that for `Cc1cc(Oc2ccc([N+](=O)[O-])c(C)c2)n[nH]1` [Compound 1-4, 5-methyl-3-(4-nitro-3-methylphenyloxy)pyrazole], 114 to 117 °C.
As to `CCc1cc(Oc2ccc([N+](=O)[O-])cc2C(F)(F)F)nn1C(=O)NC`, the melting point fell in the range of 97 to 100 °C.
With `CCNC(=S)n1nc(Oc2c(F)cc(C(F)(F)F)cc2Cl)cc1C` the figure was 114 to 115 °C; with `CCNC(=O)n1nc(Oc2c(Cl)cc(C(F)(F)F)cc2Cl)cc1-c1ccc(Cl)cc1` [Example 176, N-ethyl-5-(4-chlorophenyl)-3-(2,6-dichloro-4-trifluoromethylphenyloxy)pyrazole-1-carboxamide], 88 to 89 °C.
